# Test results from patent publication US20260001914A1, “MACROCYCLIC PEPTIDES TARGETING KRAS” (Merck Sharp & Dohme LLC, priority 2022, published 2026).
# *1 amine or outer side, *2 acyl side, *3 side chain or, on linkers, in order; H or OH if unused. Where a SMILES comes first, the peptide text is derived from it. [ ]: non-standard residue; d: D form. cBu(1-CO,cis-3-CH2NH) = O=C([C@H]1C[C@@H](CN[*:1])C1)[*:2]; Phe(4-guanidino) = N=C(N)Nc1ccc(C[C@H](N)C(=O)O)cc1; X60 = O=C([C@H](Cc1ccc(NC2=NCCN2)cc1)N[*:1])[*:2]; Ala(pyrimidin-5-yl) = N[C@@H](Cc1cncnc1)C(=O)O; X25 = O=C([C@H](Cc1ccc(F)nc1)N[*:1])[*:2]; NMeNva(5,5-F2) = CN[C@@H](CCC(F)F)C(=O)O; X62 = O=C([C@@H]1CC[C@H](N[*:1])C1)[*:2]; X69 = O=C([C@H]1CC[C@@H](N[*:1])C1)[*:2]; X11 = CC(C)(F)CC[C@H](N[*:1])C(=O)[*:2]; X13 = O=C([C@H](Cc1ccncc1F)N[*:1])[*:2]; X15 = O=C([C@H](Cc1cnccc1F)N[*:1])[*:2]; X30 = O=C([C@H](Cc1ncccc1F)N[*:1])[*:2]; X46 = O=C([C@H](Cc1cccnc1F)N[*:1])[*:2]; Nle(5,5-F2) = CC(F)(F)CC[C@H](N)C(=O)O; 1Nal = N[C@@H](Cc1cccc2ccccc12)C(=O)O; X35 = CN([C@@H](CCCF)C(=O)[*:2])[*:1]; Phe(2-F) = N[C@@H](Cc1ccccc1F)C(=O)O; X1 = O=C(C12CC(CN[*:1])(C1)C2)[*:2]; NMeCha = CN[C@@H](CC1CCCCC1)C(=O)O; Ala(cPr) = N[C@@H](CC1CC1)C(=O)O; NMeF = CN[C@@H](Cc1ccccc1)C(=O)O; PhLac = O=C(O)[C@@H](O)Cc1ccccc1; X79 = O=C(C1CCC(N[*:1])CC1)[*:2]; 3Pal = N[C@@H](Cc1cccnc1)C(=O)O; Ahp(2) = CCCCC[C@H](N)C(=O)O; Cba = N[C@@H](CC1CCC1)C(=O)O; hLeu = CC(C)CC[C@H](N)C(=O)O; NMeA = CN[C@@H](C)C(=O)O; Nle = CCCC[C@H](N)C(=O)O
# Target: KRAS-G12D protein (Homo sapiens, UniProt P01116, G12D)
# Sequence (P01116 1-188 isoform P01116-2 G12D): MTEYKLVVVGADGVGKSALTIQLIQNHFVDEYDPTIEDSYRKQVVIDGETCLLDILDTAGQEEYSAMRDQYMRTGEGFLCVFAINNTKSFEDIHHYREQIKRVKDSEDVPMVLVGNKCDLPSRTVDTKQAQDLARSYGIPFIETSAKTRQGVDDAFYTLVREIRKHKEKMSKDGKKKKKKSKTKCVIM
# Test: SOS-mediated nucleotide exchange assay (BODIPY-GDP / Tb-streptavidin TR-FRET)
# Type: biochemical
row,Compound,EC50
1,"CCCC[C@@H]1NC(=O)[C@H](Cc2ccc(NC(=N)N)cc2)NC(=O)[C@H](CCCNC(=N)N)NC(=O)[C@H](Cc2cccc3ccccc23)NC(=O)CNC(=O)[C@H](C)NC(=O)[C@H](Cc2ccccc2)N(C)C(=O)[C@H](CCCC)NC(=O)[C@H](Cc2ccc(O)cc2)NC1=O [compound 199, cyclo(INal-R-Phe4Gn-Nle-Y-Nle-NMeF-A-G)] (cyclo([1Nal]R[Phe(4-guanidino)][Nle]Y[Nle][NMeF]AG))",346 nM
2,"CCCC[C@@H]1NC(=O)[C@H](Cc2ccc(NC(=N)N)cc2)NC(=O)[C@H](CCCNC(=N)N)NC(=O)[C@H](Cc2cccc3ccccc23)NC(=O)CNC(=O)[C@@H](C)NC(=O)[C@H](Cc2ccccc2)N(C)C(=O)[C@H](CCCC)NC(=O)[C@H](Cc2ccc(O)cc2)NC1=O [compound 200, cyclo(1Nal-R-Phe4Gn-Nle-Y-Nle-NMeF-dA-G)] (cyclo([1Nal]R[Phe(4-guanidino)][Nle]Y[Nle][NMeF][dA]G))",52.9 nM
3,"CCCC[C@@H]1NC(=O)[C@H](Cc2cccnc2)NC(=O)[C@H](CCCNC(=N)N)NC(=O)[C@H](Cc2ccccc2)NC(=O)C2CCC(CC2)NC(=O)[C@H](Cc2ccccc2)N(C)C(=O)[C@H](CCCC)NC(=O)[C@H](Cc2ccc(OC)cc2)NC1=O [compound 201, cyclo(F-R-3Pal-Nle-TyrOMe-Nle-NMeF-cHxclacid4NH2)] (cyclo([3Pal][Nle]Y(Me)[Nle][NMeF][X79]FR))",256 nM
4,"CCCC[C@@H]1NC(=O)[C@H](Cc2cccnc2)NC(=O)[C@H](CCCNC(=N)N)NC(=O)[C@H](Cc2ccccc2)NC(=O)[C@H]2CC[C@H](C2)NC(=O)[C@H](Cc2ccccc2)N(C)C(=O)[C@H](CCCC)NC(=O)[C@H](Cc2ccc(OC)cc2)NC1=O [compound 202, cyclo(F-R-3Pal-Nle-TyrOMe-Nle-NMeF-dbhcLeu)] (cyclo(FR[3Pal][Nle]Y(Me)[Nle][NMeF][X69]))",949 nM
5,"CCCC[C@@H]1NC(=O)[C@H](Cc2cccnc2)NC(=O)[C@H](CCCNC(=N)N)NC(=O)[C@H](Cc2ccccc2)NC(=O)[C@@H]2CC[C@@H](C2)NC(=O)[C@H](Cc2ccccc2)N(C)C(=O)[C@H](CCCC)NC(=O)[C@H](Cc2ccc(OC)cc2)NC1=O [compound 203, cyclo(F-R-3Pal-Nle-TyrOMe-Nle-NMeF-bhcLeu)] (cyclo(FR[3Pal][Nle]Y(Me)[Nle][NMeF][X62]))",193 nM
6,"CCCC[C@@H]1NC(=O)[C@H](Cc2ccc(NC3=NCCN3)cc2)NC(=O)[C@H](CCCNC(=N)N)NC(=O)[C@H](Cc2ccccc2)NC(=O)[C@H]2C[C@@H](CNC(=O)[C@H](Cc3ccccc3)N(C)C(=O)[C@H](CCCC)NC(=O)[C@H](Cc3ccc(OC)cc3)NC1=O)C2 [compound 207, cyclo(F-R-Phe4Gnc2-Nle-TyrOMe-Nle-NMeF-c3amCblc)] (cyclo(FR[X60][Nle]Y(Me)[Nle][NMeF][cBu(1-CO,cis-3-CH2NH)]))",15.6 nM
7,"CCCCC[C@@H]1NC(=O)[C@H](Cc2ccc(OC)cc2)NC(=O)[C@H](CC2CCC2)NC(=O)[C@H](Cc2cccnc2)NC(=O)[C@H](CCCNC(=N)N)NC(=O)[C@H](Cc2ccccc2)OC(=O)C23CC(CNC(=O)[C@H](Cc4ccccc4)N(C)C1=O)(C2)C3 [compound 211, cyclo(FLac-R-3Pal-cBuA-TyrOMe-Ahp-NMeF-amBCP)] (cyclo([PhLac]R[3Pal][Cba]Y(Me)[Ahp(2)][NMeF][X1]))",10.8 nM
8,"CCCC[C@@H]1NC(=O)[C@H](Cc2cccnc2)NC(=O)[C@H](CCCNC(=N)N)NC(=O)[C@H](Cc2ccccc2)OC(=O)C23CC(CNC(=O)[C@H](Cc4ccccc4)N(C)C(=O)[C@H](CCCC)NC(=O)[C@H](Cc4ccccc4F)NC1=O)(C2)C3 [compound 212, cyclo(FLac-R-3Pal-Nle-Phe2F-Nle-NMeF-amBCP)] (cyclo([PhLac]R[3Pal][Nle][Phe(2-F)][Nle][NMeF][X1]))",20.7 nM
9,"CC(C)CC[C@@H]1NC(=O)[C@H](Cc2cnccc2F)NC(=O)[C@H](CC2CC2)NC(=O)[C@H](Cc2cncnc2)NC(=O)[C@H](C)N(C)C(=O)[C@H](Cc2ccccc2)OC(=O)C23CC(CNC(=O)[C@H](Cc4ccccc4)N(C)C1=O)(C2)C3 [compound 213, cyclo(FLac-NMcA-PyrimAla-cPrA-3Pal6F-hL-NMeF-amBCP)] (cyclo([Ala(cPr)][X15][hLeu][NMeF][X1][PhLac][NMeA][Ala(pyrimidin-5-yl)]))",3.72 nM
10,"CC(C)CC[C@@H]1NC(=O)[C@H](Cc2ccncc2F)NC(=O)[C@H](CC2CC2)NC(=O)[C@H](Cc2cncnc2)NC(=O)[C@H](C)N(C)C(=O)[C@H](Cc2ccccc2)OC(=O)C23CC(CNC(=O)[C@H](Cc4ccccc4)N(C)C1=O)(C2)C3 [compound 214, cyclo(FLac-NMeA-PyrimAla-cPrA-4Pal2F-hL-NMeF-amBCP)] (cyclo([Ala(cPr)][X13][hLeu][NMeF][X1][PhLac][NMeA][Ala(pyrimidin-5-yl)]))",2.69 nM
11,"CC(C)CC[C@@H]1NC(=O)[C@H](Cc2cccnc2F)NC(=O)[C@H](CC2CC2)NC(=O)[C@H](Cc2cncnc2)NC(=O)[C@H](C)N(C)C(=O)[C@H](Cc2ccccc2)OC(=O)C23CC(CNC(=O)[C@H](Cc4ccccc4)N(C)C1=O)(C2)C3 [compound 215, cyclo(FLac-NMeA-PyrimAla-cPrA-3Pal2F-hL-NMeF-amBCP)] (cyclo([Ala(cPr)][X46][hLeu][NMeF][X1][PhLac][NMeA][Ala(pyrimidin-5-yl)]))",31 nM
12,"CC(C)CC[C@@H]1NC(=O)[C@H](Cc2ccccc2F)NC(=O)[C@H](CC2CC2)NC(=O)[C@H](Cc2cncnc2)NC(=O)[C@H](CCCF)N(C)C(=O)[C@H](Cc2ccccc2)OC(=O)C23CC(CNC(=O)[C@H](Cc4ccccc4)N(C)C1=O)(C2)C3 [compound 216, cyclo(FLac-NMeNvaF-PyrimAla-cPrA-Phe2F-hL-NMeF-amBCP)] (cyclo([Ala(cPr)][Phe(2-F)][hLeu][NMeF][X1][PhLac][X35][Ala(pyrimidin-5-yl)]))",26 nM
13,"CC(C)CC[C@@H]1NC(=O)[C@H](Cc2ccccc2F)NC(=O)[C@H](CC2CC2)NC(=O)[C@H](Cc2cncnc2)NC(=O)[C@H](CCC(F)F)N(C)C(=O)[C@H](Cc2ccccc2)OC(=O)C23CC(CNC(=O)[C@H](Cc4ccccc4)N(C)C1=O)(C2)C3 [compound 217, cyclo(FLac-NMeNvaF2-PyrimAla-cPrA-Phe2F-hL-NMeF-amBCP)] (cyclo([Ala(cPr)][Phe(2-F)][hLeu][NMeF][X1][PhLac][NMeNva(5,5-F2)][Ala(pyrimidin-5-yl)]))",173 nM
14,"C[C@H]1C(=O)N[C@@H](Cc2cncnc2)C(=O)N[C@@H](CC2CCC2)C(=O)N[C@@H](Cc2ccccc2F)C(=O)N[C@@H](CCC(C)(F)F)C(=O)N(C)[C@@H](Cc2ccccc2)C(=O)NCC23CC(C2)(C3)C(=O)O[C@@H](Cc2ccccc2)C(=O)N1C [compound 224, cyclo(FLac-NMcA-PyrimAla-cBuA-Phe2F-Nle3F2-NMeF-amBCP)] (cyclo([Cba][Phe(2-F)][Nle(5,5-F2)][NMeF][X1][PhLac][NMeA][Ala(pyrimidin-5-yl)]))",2.39 nM
15,"C[C@H]1C(=O)N[C@@H](Cc2cncnc2)C(=O)N[C@@H](CC2CCC2)C(=O)N[C@@H](Cc2ccccc2F)C(=O)N[C@@H](CCC(C)(C)F)C(=O)N(C)[C@@H](Cc2ccccc2)C(=O)NCC23CC(C2)(C3)C(=O)O[C@@H](Cc2ccccc2)C(=O)N1C [compound 225, cyclo(FLac-NMeA-PyrimAla-cBuA-Phe2F-hL3F-NMeF-amBCP)] (cyclo([Cba][Phe(2-F)][X11][NMeF][X1][PhLac][NMeA][Ala(pyrimidin-5-yl)]))",1.87 nM
16,"CCCCC[C@@H]1NC(=O)[C@H](Cc2ccc(OC)cc2)NC(=O)[C@H](CC2CCC2)NC(=O)[C@H](Cc2cccnc2)NC(=O)[C@H](C)N(C)C(=O)[C@H](Cc2ccccc2)OC(=O)C23CC(CNC(=O)[C@H](Cc4ccccc4)N(C)C1=O)(C2)C3 [compound 227, cyclo(FLac-NMeA-3Pal-cBuA-TyrOMe-Ahp-NMeF-amBCP)] (cyclo([3Pal][Cba]Y(Me)[Ahp(2)][NMeF][X1][PhLac][NMeA]))",37.9 nM
17,"CCCC[C@@H]1NC(=O)[C@H](Cc2ccc(F)nc2)NC(=O)[C@H](C)N(C)C(=O)[C@H](Cc2ccccc2)OC(=O)C23CC(CNC(=O)[C@H](Cc4ccccc4)N(C)C(=O)[C@H](CCCC)NC(=O)[C@H](Cc4ncccc4F)NC1=O)(C2)C3 [compound 228, cyclo(FLac-NMeA-4F3Pal-Nle-2Pal6F-Nle-NMeF-amBCP)] (cyclo([NMeA][X25][Nle][X30][Nle][NMeF][X1][PhLac]))",870 nM
18,"CCCC[C@@H]1NC(=O)[C@H](Cc2cncnc2)NC(=O)[C@H](C)N(C)C(=O)[C@H](Cc2ccccc2)OC(=O)C23CC(CNC(=O)[C@H](Cc4ccccc4)N(C)C(=O)[C@H](CCCC)NC(=O)[C@H](Cc4ncccc4F)NC1=O)(C2)C3 [compound 229, cyclo(FLac-NMeA-PyrimAla-Nle-2Pal6F-Nle-NMeF-amBCP)] (cyclo([NMeA][Ala(pyrimidin-5-yl)][Nle][X30][Nle][NMeF][X1][PhLac]))",559 nM
19,"CCCC[C@@H]1NC(=O)[C@H](Cc2cncnc2)NC(=O)[C@H](C)N(C)C(=O)[C@H](Cc2ccccc2)OC(=O)C23CC(CNC(=O)[C@H](Cc4ccccc4)N(C)C(=O)[C@H](CCCC)NC(=O)[C@H](Cc4ccccc4F)NC1=O)(C2)C3 [compound 230, cyclo(FLac-NMeA-PyrimAla-Nle-Phe2F-Nle-NMeF-amBCP)] (cyclo([NMeA][Ala(pyrimidin-5-yl)][Nle][Phe(2-F)][Nle][NMeF][X1][PhLac]))",17.4 nM
20,"CCCC[C@@H]1NC(=O)[C@H](Cc2ccc(F)nc2)NC(=O)[C@H](C)N(C)C(=O)[C@H](Cc2ccccc2)OC(=O)C23CC(CNC(=O)[C@H](Cc4ccccc4)N(C)C(=O)[C@H](CCCC)NC(=O)[C@H](Cc4ccccc4F)NC1=O)(C2)C3 [compound 231, cyclo(FLac-NMeA-4F3Pal-Nle-Phe2F-Nle-NMeF-amBCP)] (cyclo([NMeA][X25][Nle][Phe(2-F)][Nle][NMeF][X1][PhLac]))",72.4 nM
21,"CCCC[C@@H]1NC(=O)[C@H](Cc2cccnc2)NC(=O)[C@H](C)N(C)C(=O)[C@H](Cc2ccccc2)OC(=O)C23CC(CNC(=O)[C@H](CC4CCCCC4)N(C)C(=O)[C@H](CCCC)NC(=O)[C@H](Cc4ccccc4F)NC1=O)(C2)C3 [compound 232, cyclo(FLac-NMeA-3Pal-Nle-Phe2F-Nle-NMeCha-amBCP)] (cyclo([3Pal][Nle][Phe(2-F)][Nle][NMeCha][X1][PhLac][NMeA]))",2930 nM
